This note sets out measurements from patent US20110059910A1, “Novel aromatic fluoroglycoside derivatives, pharmaceuticals comprising said compounds and the use thereof” (SANOFI-AVENTIS, priority 2008, published 2011).

For this assay, the target named is T1, human sodium-dependent glucose transporter 2 (SGLT2, SLC5A2) (Homo sapiens, UniProt P31639).
T1 construct: Bases 21 to 2039 correspond to the complete coding region of human SGLT2; expressed in transfected cells
T1 sequence (P31639 1-672): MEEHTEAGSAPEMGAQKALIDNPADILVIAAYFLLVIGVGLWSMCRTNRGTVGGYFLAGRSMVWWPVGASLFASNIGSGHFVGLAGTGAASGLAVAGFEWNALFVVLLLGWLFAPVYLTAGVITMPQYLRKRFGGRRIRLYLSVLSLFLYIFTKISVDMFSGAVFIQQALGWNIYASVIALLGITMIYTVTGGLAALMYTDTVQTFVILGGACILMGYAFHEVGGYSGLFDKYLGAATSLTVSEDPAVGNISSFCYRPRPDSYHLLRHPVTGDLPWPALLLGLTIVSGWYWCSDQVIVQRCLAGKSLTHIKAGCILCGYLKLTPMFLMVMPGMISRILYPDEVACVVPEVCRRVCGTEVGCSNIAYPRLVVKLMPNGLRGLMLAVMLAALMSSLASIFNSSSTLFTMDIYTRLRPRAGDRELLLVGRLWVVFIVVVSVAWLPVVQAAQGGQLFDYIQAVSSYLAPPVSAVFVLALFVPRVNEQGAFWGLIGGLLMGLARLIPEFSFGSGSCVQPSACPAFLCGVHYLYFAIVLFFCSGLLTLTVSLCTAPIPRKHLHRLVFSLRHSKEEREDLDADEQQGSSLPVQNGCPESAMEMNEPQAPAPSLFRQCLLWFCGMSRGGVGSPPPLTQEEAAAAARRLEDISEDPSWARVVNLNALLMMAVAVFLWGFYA
Description: Inhibition of the transport activity of human SGLT2 in vitro (α-MDG uptake in CHO-TRex-hSGLT2 cells). It is filed as cell-based. Particulars: 50 μM α-MDG, 120 min at 37° C. The text has this: Inhibition of the Transport Activity of the Human Sodium-Dependent Glucose Transporter 2 (SGLT2, SLC5A2) In Vitro
1. Cloning of an Expression Vector for Human SGLT2
The cDNA for human SGLT2 was introduced into the pcDNA4/TO vector (Invitrogen) by means of standard methods of molecular biology as described in Sambrook et al. (Molecular Cloning, A Laboratory Manual, Second Edition). […] Bases 21 to 2039 correspond to the complete coding region of human SGLT2.
2. Production of a Recombinant Cell Line with Inducible Expression of Human SGLT2
The expression vector for human SGLT2 was introduced into CHO-TREx cells (Invitrogen) by means of FuGene6 lipofection (Roche). To select single cell clones, 600 μg/ml of Zeocin (Invitrogen) was added to the cell culture medium (nutrient mixture F-12 (Ham), (Invitrogen) supplemented with 10% fetal calf serum (FBS Gold, PAA), 10 μg/ml Blasticidin S(CN Biosciences), 100 units/ml penicillin, 100 units/ml streptomycin). The functionality of the single cell clones resulting from the selection was tested via their uptake activity for radiolabeled methyl-α-D-glucopyranoside. That cell clone with the highest uptake activity for methyl-α-D-glucopyranoside, referred to hereinafter as CHO-TRex-hSGLT2, was selected for the further experiments and cultured further in the presence of 600 μg/ml Zeocin.
3. Measurement of the Inhibiting Action of Test Substances on the Uptake of methyl-α-D-glucopyranoside (α-MDG)
CHO-TRex-hSGLT2 cells were seeded in cell culture medium in a concentration of 50 000 cells per well in Cytostar-T scintillating 96-well plates (Amersham Biosciences) and cultivated for 24 h. The expression of the recombinant human SGLT2 was induced by adding 1 μg/ml tetrazykline for a further 24 h. For α-MDG uptake experiments, the cells were washed with PBS and then starved at 37° C. in starvation medium (PBS supplemented with 10% fetal calf serum) for 1 hour. After a further washing step with transport assay buffer (140 mM sodium chloride, 2 mm potassium chloride, 1 mm magnesium chloride, 1 mm calcium chloride, 10 mm HEPES/Tris, pH 7.5), the cells were incubated at room temperature either in the absence or presence of test substances of different concentration for 15 min. The test substances were diluted correspondingly in transport assay buffer proceeding from a 10 mm stock solution in dimethyl sulfoxide (40 μl/well). The assay was subsequently started by adding 10 μl/well of a mixture of radiolabeled methyl-α-D-[U-^14C]glucopyranoside (Amersham) and unlabeled methyl-α-D-glucopyranoside (Acros). The final concentration of methyl-α-D-glucopyranoside in the assay was 50 μM. After an incubation time of 120 min at 37° C., the reaction was stopped by adding 50 μl/well of 10 mM methyl-α-D-glucopyranoside in transport assay buffer (4° C.), and the radioactivity taken up into the cells was determined in a MicroBeta Scintillation Microplate Reader (Wallac).
The half-maximum inhibiting action of the test substances (IC50 value) was determined as follows: • 1. Determination of the value for 0% inhibition. This is the measurement in the absence of substance, measured in sodium-containing transport assay buffer. • 2. Determination of the value for 100% inhibition. This is the measurement in the absence of substance, measured in sodium-free transport assay buffer (140 mM choline chloride, 2 mM potassium chloride, 1 mM magnesium chloride, 1 mM calcium chloride, 10 mM HEPES/Tris, pH7.5). • 3. Calculation of the percentage inhibition values of those measurements which were carried out in the presence of different concentrations of test substance. From this, it was then possible to determine that concentration of the test substance which reduces the uptake of the methyl-α-D-glucopyranoside by 50% (IC50 value).

For the compound `CCc1ccc(Cc2cccc(C3OC(CO)C(F)C(O)C3O)c2)cc1` (centres unmarked) [Example 4], half-maximal inhibition (IC50) was put at 0.153 µM.

For `CCOC(=O)OCC1OC(c2ccc(OC)c(Cc3ccc(OC)cc3)c2)C(O)C(O)C1(F)F` (centres unmarked) [Example 14], the IC50 (in general, the point on the concentration scale where inhibition reaches its midpoint) was 1.6 µM.

As for `CCOC(=O)OC1C(O)C(c2ccc(Cl)c(Cc3ccc(OCC)cc3)c2)OC(CO)C1(F)F` (centres unmarked) [Example 19], the 50% inhibitory concentration (IC50) is 0.165 µM.

As to `CCOC(=O)OCC1OC(c2ccc(Cl)c(Cc3ccc(OC)cc3)c2)C(O)C(O)C1F` (centres unmarked) [Example 20], the IC50 was 1.06 µM.

Compound `OCC1OC(c2ccc(Cl)c(Cc3ccc(OCC4CC4)cc3)c2)C(O)C(O)C1(F)F` (centres unmarked) [Example 32] displayed an IC50 of 0.046 µM.

`CCOC(=O)OC[C@H]1O[C@@H](c2ccc(Cl)c(Cc3ccc(Cl)cc3)c2)[C@H](O)[C@@H](O)C1(F)F` [Example 45] displayed an IC50 of 3 µM.

Consider `CCc1ccc(Cc2cc(C3OC(CO)C(F)C(O)C3O)ccc2C(F)(F)F)cc1` (centres unmarked) [Example 52], for which the 50% inhibitory concentration (IC50) was 0.107 µM.

As for `CCc1ccc(Cc2cc(C3OC(CO)C(F)(F)C(O)C3O)ccc2C(F)(F)F)cc1` (centres unmarked) [Example 54], the half-inhibitory concentration (IC50) is 0.257 µM.
